In US5628328A, “Method for measuring muscle mass” (priority 1995, dated 1997):
Where two headings read alike, the source gives them in different places.

What was measured:
[1] = parameters: species or system human; conditions: in vivo
Description: Normal volunteers with no evidence or history of diabetes mellitus or of cardiac, liver, renal or pulmonary diseases were studied. The subjects consisted of 3 males and 1 female, ranging in age from 31 to 37 years, in body weight from 47 to 92 kg, and in body mass index (BMI) from 19.2 to 25.5. The purpose and possible risks of the study were explained to all subjects, and their voluntary written consent was obtained. The study protocol was approved by the Committee for the Protection of Human Subjects of the Institutional Review Board at Vanderbilt University School of Medicine. All studies were performed at the Clinical Research Center (CRC). Subjects were placed on balanced weight-maintenance diets for at least one week before the start of the study. Meat was excluded from the subjects' diets for three days before the study and during the study.
All studies were performed after a 10-12 hour overnight fast. On the morning of the experiment (6.30 to 7.00 hours), an 18-gauge Angiocatheter™ (Benton Dickinson, Sandy, Utah) was placed in a superficial hand vein of the nondominant arm for blood sampling. The hand was heated to 55° C. to ensure complete arterialization (Abumrad, N.N. et al., "Use of a heated superficial hand vein as an alternative site for the measurement of amino acid concentrations and for the study of glucose and alanine kinetics in man," Metabolism (1981) 30:936-940). In addition, a 16-gauge angiocatheter was inserted into the contralateral forearm vein for the infusion of L-3-[methyl-^2 H3 ]-histidine (MSD Isotopes, Montreal, Canada). Finally, another catheter was threaded retrograde into the brachial vein of the dominant arm and used for sampling of the forearm tissue.
Each study was four days in duration. Starting at t=0 (8.00 hours), subjects were administered a bolus infusion of L-3-[methyl^2 H3 ]-histidine (D3 -3-methylhistidine) at 0.13 μmol/kg into the forearm vein of the dominant arm. The infusate was passed through a Millex-GS sterilizing filter (0.22 μm; Millipore Products Divisions, Bedford, Mass.) before the infusion. Blood samples were obtained from the superficial hand vein and from the deep forearm vein at 0, 1, 2, 5, 10, 15, 30, 45, 90, 150, 210, 270, 330, and 720 min. postinjection. During this time, the subjects were required to stay at the Clinical Research Center, although they were allowed to ambulate freely within their rooms. Free access to food and drink was allowed after the 330-min sample. After 720 min, the catheters were removed and the patients were allowed to go home. For the following three days, the subjects returned to the CRC each morning before eating for further blood sampling by percutaneous venous puncture at 1,440, 2,880, and 4,320 min postinjection. Urine was collected over 24 hour periods the day before and for three days after tracer infusion.
Blood was collected in heparinized syringes, transferred to tubes containing Na2 EDTA (15 mg/tube), and centrifuged. The plasma obtained was immediately placed on ice. An aliquot of the plasma was processed for determination of 3-methylhistidine concentration as well as the L-3-[methyl-^2 H3 ]-histidine:3-methylhistidine isotope enrichment. The remainder of the plasma was frozen at -70° C. The urine obtained was processed for the determination of creatinine both as a measure of the completeness of the collection (Pencharz, P. B. et al., "The effect of an energy-restricted diet on the protein metabolism of obese adolescents: nitrogen-balance and whole-body nitrogen turnover," Clin. Sci. (1980) 59:13-18), and for the estimation of lean body mass (Blackburn, G. L. et al., "Nutritional and metabolic assessment of hospitalized patients," J. Parenter. Enteral. Nutr. (1977) 1:11-22). […]

[2] = parameters: species or system cattle; conditions: bovine, in vivo
Description: For cattle, the same three-compartment model was used as described herein. With respect to sheep, the model differs from that shown in FIG. 1 in that de novo production of 3-methylhistidine is shown in compartment 2 and additionally, exit from compartment 3 occurs as well as from compartment 1 into urine. With respect to swine, again, de novo production of 3-methylhistidine is shown in compartment 2, and exit to urine is from compartment 3.
Urinary 3-methylhistidine may be used in cattle and humans as an index of muscle protein breakdown but is invalid for use in pigs and lambs. […] Previously, in validating urinary 3-methylhistidineas an index of muscle proteolysis, researchers have injected ^14 C-3-methylhistidine intravenously and recovered the tracer in urine but have never described its decay in plasma. In constructing the 3-compartment model, we kept in mind known physiology of 3-methylhistidine. It has been established that there are pools of 3-methylhistidine in plasma, in other extracellular fluid pools, within muscle and in other tissues. […] Based on comparison of fits, a 3-compartment model was the best model to describe the metabolism of 3-methylhistidine; however, 2- and 4-compartment models as well as other configurations were also evaluated. […]

[3] = parameters: species or system dogs; conditions: dog, in vivo
Description: Urinary 3-methylhistidine may be used in cattle and humans as an index of muscle protein breakdown but is invalid for use in pigs and lambs. […] Previously, in validating urinary 3-methylhistidineas an index of muscle proteolysis, researchers have injected ^14 C-3-methylhistidine intravenously and recovered the tracer in urine but have never described its decay in plasma. In constructing the 3-compartment model, we kept in mind known physiology of 3-methylhistidine. It has been established that there are pools of 3-methylhistidine in plasma, in other extracellular fluid pools, within muscle and in other tissues. The primary fate of 3-methylhistidine in humans, cattle and dogs is into urine (model exit from compartment 1), but in sheep and pigs there is a balenine pool in muscle that accumulates over time (model exit from compartment 3). The kinetic data were initially fitted to three exponential terms, indicating the possibility of a three compartment model. […] Model code 10 of SAAM was used and the models were based on a set of linear differential equations having constant coefficients. Based on comparison of fits, a 3-compartment model was the best model to describe the metabolism of 3-methylhistidine; however, 2- and 4-compartment models as well as other configurations were also evaluated. […]

[4] = cited from earlier work
[5] = cited from earlier work; remark: listed apart in the source

Cn1cnc(C[C@H](N)C(=O)O)c1 [3-methylhistidine]
3MH Production [1]: 3.1 µmol/kg/day
L0,1 fractional transfer rate [1]: .004 min⁻¹
L1,2 fractional transfer rate [1]: .06 min⁻¹
L2,3 fractional transfer rate [1]: .002 min⁻¹
L3,2 fractional transfer rate [1]: .009 min⁻¹
M1, compartment mass [1]: 603 nmol/kg
M2, compartment mass [1]: 912 nmol/kg
M3, compartment mass [1]: 7938 nmol/kg
Plasma levels of 3-methylhistidine over time [1]: did not change over the four days of the study
R01 mass transfer rate [1]: 2.2 nmol/kg/min
R12 mass transfer rate [1]: 53 nmol/kg/min
R21 mass transfer rate [1]: 51 nmol/kg/min
R23 mass transfer rate [1]: 9.6 nmol/kg/min
R32 mass transfer rate [1]: 7.9 nmol/kg/min
Size of compartment 2 relative to compartment 1 [1]: 1.5 times
Size of compartment 3 relative to compartment 1 [1]: 13 times
Urinary 3MH loss [1]: 100 % of total
Model 3-methylhistidine production versus urinary production [2]: qualitatively similar
Model 3-methylhistidine production versus urinary production [3]: qualitatively similar
3MH Production ([4]; pigs, n=20, from model): 7.2 µmol/kg/day
M1, compartment mass ([4]; pigs, n=20): 1110 nmol/kg
M2, compartment mass ([4]; pigs, n=20): 2857 nmol/kg
M3, compartment mass ([4]; pigs, n=20): 6151 nmol/kg
R03 mass transfer rate ([4]; pigs, n=20): 5.0 nmol/kg/min
R12 mass transfer rate ([4]; pigs, n=20): 247 nmol/kg/min
R21 mass transfer rate ([4]; pigs, n=20): 247 nmol/kg/min
R23 mass transfer rate ([4]; pigs, n=20): 32 nmol/kg/min
R32 mass transfer rate ([4]; pigs, n=20): 37 nmol/kg/min
Urinary excretion of total daily 3-methylhistidine produced ([4]; pigs): 1.5 %/d
L0,3 fractional transfer rate ([4]; swine, number 20): .0009 min⁻¹
L1,2 fractional transfer rate ([4]; swine, number 20): .09 min⁻¹
L2,1 fractional transfer rate ([4]; swine, number 20): .23 min⁻¹
L2,3 fractional transfer rate ([4]; swine, number 20): .006 min⁻¹
L3,2 fractional transfer rate ([4]; swine, number 20): .014 min⁻¹
Urinary 3MH loss ([4]; swine, number 20): 1 % of total
3-methylhistidine excretion during exercise ([5]; humans): insignificant increase
3-methylhistidine excretion during recovery from exercise ([5]; humans): significant increase
Urinary excretion ([5]; man): quantitatively excreted in the urine
